Patent US5530141A, “2,4-diaryl-1,3-dithiolanes; 2,4-diaryl-1,3-dioxolanes; 2,4-diaryl-1,3-oxathiolanes; and 2,5-diaryl-1,3-oxathiolanes for the treatment of disorders mediated by platelet activating factor or products of 5-lipoxygenase” (Center for Innovative Technology, priority 1992, dated 1996)
Values belong to the compound of their own block, whether it stands above or below them.

What was measured:
[1] = target: T1, specific receptors on human platelet membranes (PAF receptors) (Homo sapiens, UniProt P25105); assay: [3H]PAF binding inhibition on human platelet membranes (Table 1, PAF); conditions: [3H]PAF 0.3 nM, pH 7.0, 4 h, 0° C
T1 construct: Human platelet membranes were prepared from platelet concentrates obtained from the American Red Cross Blood Services; from tissue; host or cells: human platelets (concentrates from American Red Cross Blood Services, Dedham, Mass.), membrane fractions A and B
Experimental: Human platelet membranes were prepared from platelet concentrates obtained from the American Red Cross Blood Services (Dedham, Mass.). After several washes with platelet wash solution (150 mM NaCl, 10 mM Tris, and 2 mM EDTA, pH 7.5), the platelet pellets were resuspended in 5 mM MgCl2, 10 mM Tris, and 2 mM EDTA at pH 7.0. The cells were then quickly frozen with liquid nitrogen and thawed slowly at room temperature. The freezing and thawing procedure was repeated at least three times. For further fractionation of membrane fragments, the lysed membrane suspension was layered over the top of a discontinous sucrose density gradient of 0.25, 1.03, and 1.5M sucrose prepared in 10 mM MgCl2, 10 mM Tris and 2 mM EDTA, pH 7.0, and centrifuged at 63,500×g for 2 hr. The membrane fractions banding between 0.25 and 1.03M (membrane A) and between 1.03 and 1.5M (membrane B) were collected separately. The protein concentration of the membrane preparations was determined by Lowry's method with bovine serum albumin (BSA) as the standard. The membranes were then separated into smaller fractions (4 ml each) and stored at -80° C. and thawed before use.
b) [^3 H]PAF Binding inhibition:
The ability of [^3 H]PAF to bind to specific receptors on human platelet membranes was evaluated at optimal conditions at pH 7.0 and in the presence of 10 mM MgCl2. Membrane protein (100 ug) was added to a final 0.5 ml solution containing 0.15 pmol (0.3 nM concentration) of [^3 H]PAF and a known amount of unlabeled PAF or PAF receptor antagonist in 10 mM MgCl2, 10 mM Tris and 0.25% BSA at pH 7.0. After incubation for four hours at 0° C., the bound and unbound [^3 H]PAF were then separated through a Whatman GF/C glass fiber filter under vacuum. No degradation of filter bound [^3 H]PAF has been detected under this assay condition. The nonspecific binding was defined as the total binding in the presence of excess unlabeled PAF (1 mM) where no further displacement was found with higher concentrations of either unlabeled PAF or PAF analogs or PAF receptor antagonists. The specific binding was defined as the difference between total binding and nonspecific binding.
To determine the relative potency of tested compounds, [^3 H]PAF binding in the presence of inhibitors was normalized in terms of percent inhibition by assigning the total binding in the absence of inhibitors as 0% inhibition and the total binding in the presence of 1 mM unlabeled PAF as 100%. The percent inhibition by the compound can be calculated by the formula expressed below:
% inhibition=[(Total binding-total binding in the presence of
compound)/nonspecific binding]×100%
The IC50 was calculated as the concentration of the inhibitor necessary to obtain 50% inhibition of the specific [^3 H]PAF binding and was calculated by a nonlinear regression computer software program, GraphPad Inplot, version 3.0 (GraphPad software, San Diego, Calif.). Table 1 provides the IC50 values for a number of 2,4-diaryl-1,3-dithiolanes.

5-LO = target: T2, 5-LO (Rattus norvegicus, UniProt P12527); assay: 5-LO inhibition (Table 1); type: biochemical; conditions: for inhibition at 3 µM: read-out: 5-LO, percent @ 3 μM
T2 sequence (P12527 1-673): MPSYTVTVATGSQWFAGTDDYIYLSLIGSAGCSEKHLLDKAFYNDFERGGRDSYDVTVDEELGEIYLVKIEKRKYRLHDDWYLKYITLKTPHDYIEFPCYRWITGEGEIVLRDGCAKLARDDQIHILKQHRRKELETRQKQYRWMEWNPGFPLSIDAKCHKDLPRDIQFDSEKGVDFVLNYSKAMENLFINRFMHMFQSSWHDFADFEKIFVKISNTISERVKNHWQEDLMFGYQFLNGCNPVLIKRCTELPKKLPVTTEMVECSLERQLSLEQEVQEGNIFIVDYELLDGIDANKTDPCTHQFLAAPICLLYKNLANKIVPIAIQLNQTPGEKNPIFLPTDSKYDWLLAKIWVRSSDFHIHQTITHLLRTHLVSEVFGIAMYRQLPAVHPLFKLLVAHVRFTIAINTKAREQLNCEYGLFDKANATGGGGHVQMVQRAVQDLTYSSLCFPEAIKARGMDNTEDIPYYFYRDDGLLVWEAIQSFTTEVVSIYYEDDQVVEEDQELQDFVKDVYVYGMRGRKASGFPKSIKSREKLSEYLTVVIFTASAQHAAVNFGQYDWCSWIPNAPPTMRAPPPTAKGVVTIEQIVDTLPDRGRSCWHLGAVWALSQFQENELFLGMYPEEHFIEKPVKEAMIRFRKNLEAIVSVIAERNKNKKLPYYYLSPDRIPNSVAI

RBL 5-LO = target: T3, RBL 5-LO (Rattus norvegicus, UniProt P12527); assay: RBL 5-LO inhibition (Table 2); type: biochemical; conditions: unit inferred
T3 construct: cytosol 5-lipoxygenase of rat basophilic leukemia cells (RBL); endogenous in cells; host or cells: rat basophilic leukemia (RBL) cells
T3 sequence (P12527 1-673): T2 sequence (P12527 1-673)
Description: A wide variety of biological assays have also been used to evaluate the ability of a compound to inhibit the enzyme 5-lipoxygenase. For example, a cytosol 5-lipoxygenase of rat basophilic leukemia cells (RBL) has been widely utilized in studies on leukotriene biosynthesis. Compounds that inhibit 5-lipoxygenase decrease the levels of leukotrienes.

PAF receptor = conditions: cited from earlier work
5-lipoxygenase = conditions: cited from earlier work

T1 sequence (P25105 whole entry): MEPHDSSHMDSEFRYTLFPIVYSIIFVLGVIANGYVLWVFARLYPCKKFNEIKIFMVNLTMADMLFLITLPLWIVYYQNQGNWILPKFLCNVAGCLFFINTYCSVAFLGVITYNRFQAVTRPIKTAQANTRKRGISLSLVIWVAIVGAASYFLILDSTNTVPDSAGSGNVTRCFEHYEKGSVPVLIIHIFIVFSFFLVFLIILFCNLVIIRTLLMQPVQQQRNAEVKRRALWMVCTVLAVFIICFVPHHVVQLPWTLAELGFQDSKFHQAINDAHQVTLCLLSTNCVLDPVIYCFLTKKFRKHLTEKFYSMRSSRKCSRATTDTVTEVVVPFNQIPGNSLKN

Compound: CCCCN(O)C(=O)Nc1cc(C2SCC(c3cc(OC)c(OC)c(OC)c3)S2)cc(OC)c1OC (stereo not drawn) [compound 3, Trans-2-[3,4-dimethoxy-5-(N-n-butyl-N-hydroxyureidyl)phenyl]-4-(3,4,5-trimethoxyphenyl)-1,3-dithiolane]
IC50 [1]: 67.8 nM | IC50 (5-LO): 240 nM

Compound: COc1cc([C@H]2SC[C@H](c3cc(OC)c(OC)c(OC)c3)S2)cc(NC(=S)N(C)O)c1OC (relative stereo) [compound 2]
IC50 (5-LO): 280 nM

Compound: CCCOc1c(OC)cc([C@H]2CC[C@H](c3cc(OC)c(OC)c(OC)c3)O2)cc1S(C)(=O)=O (relative stereo) [L-659,989, trans-2-(3-methoxy-4-propoxyphenyl-5-methylsulfonyl)-5-(3,4,5-trimethoxyphenyl)tetrahydrofuran]
PAF receptor antagonist activity (PAF receptor): orally active, potent, competitive PAF receptor antagonist | equilibrium inhibition constant relative to trans-L-652,731 (PAF receptor; greater than that of trans-L-652,731): 10 times

Compound: COc1cc([C@H]2CS[C@H](c3cc(OC)c(OCCSc4ccc(O)cc4)c([N+](=O)[O-])c3)S2)cc(OC)c1OC (relative stereo) [compound 7, Trans-2-[4-{2-(4'-hydroxyphenylthio)ethoxy}-3-methoxy-5-nitrophenyl]-4-(3,4,5-trimethoxyphenyl)-1,3-dithiolane]
inhibition at 3 µM (5-LO): 57%

Compound: COc1cc([C@H]2SC[C@H](c3cc(OC)c(OC)c(OC)c3)S2)cc(NC(=O)N(O)c2ccc(Cl)cc2)c1OCCSc1ccc(O)cc1 (relative stereo) [compound 10, Trans-2-[5-(N-(p-chlorophenyl)-N-hydroxyureidyl)-4-{2-(4'-hydroxy-phenylthio)ethoxy}-3-methoxyphenyl]-4-(3,4,5-trimethoxyphenyl)-1,3-dithiolane]
inhibition at 3 µM (5-LO): 64%

Compound: C=CCC1=C[C@@]2(OC)C(=CC1=O)O[C@H](c1ccc(OC)c(OC)c1)[C@H]2C [kadsurenone]
PAF receptor antagonist activity (PAF receptor): potent, specific and competitive inhibitor of PAF activity at the receptor level

Compound: COc1cc([C@H]2SC[C@H](c3cc(OC)c(OC)c(OC)c3)S2)cc(NC(=O)N(C)O)c1OC (relative stereo) [compound 1, Cis and Trans-2-[3,4-dimethoxy-5-(N-hydroxy-N-methylureidyl)phenyl]-4-(3,4,5-trimethoxyphenyl)-1,3-dithiolane]
IC50 [1]: 259 nM | IC50 (5-LO): 220 nM

Compound: C=CCOc1c(NC(=O)N(O)C(C)(C)C)cc([C@@H]2O[C@@H](c3cc(OC)c(OC)c(OC)c3)CS2)cc1OC (relative stereo)
IC50 (RBL 5-LO): 410 nM

Compound: CCCCCCCCCCCCCCCCCCNC(=O)OCC(COP(=O)([O-])OCC[n+]1ccsc1)OC (racemic) [CV-3988, rac-3-(N-n-octadecyl-carbamoyloxy-w-methoxypropyl-2-thiazolioethyl phosphate]
PAF receptor antagonist activity (PAF receptor): PAF receptor antagonist properties

Compound: COc1cc(C2SCC(c3cc(OC)c(OC)c(OC)c3)S2)cc(CN(O)C(C)=O)c1OC (stereo not drawn)
IC50 (RBL 5-LO): 850 nM

Compound: COc1cc([C@H]2CC[C@H](c3cc(OC)c(OC)c(OC)c3)S2)cc(OC)c1OC (relative stereo) [L-653,150, trans-2,5-bis-(3,4,5-trimethoxyphenyl)tetrahydrothiophene]
PAF receptor antagonist activity (PAF receptor): potent PAF antagonist | effect on the enzyme 5-lipoxygenase (5-lipoxygenase): moderate inhibitor of 5-lipoxygenase

Compound: COc1cc([C@H]2SC[C@H](c3cc(OC)c(OC)c(OC)c3)S2)cc(NC(=O)N(C)O)c1OCCSc1ccc(O)cc1 (relative stereo) [compound 9, Trans-2-[5-(N-hydroxy-N-methylureidyl)-4-{2-(4'-hydroxy-phenylthio)ethoxy}-3-methoxyphenyl]-4-(3,4,5-trimethoxyphenyl)-1,3-dithiolane]
IC50 (5-LO): 120 nM

Continued, values first:

IC50 (RBL 5-LO): 1440 nM
Compound: COc1cc(C2SCC(c3cc(OC)c(OC)c(OC)c3)S2)cc(CN(O)C(N)=O)c1OC (stereo not drawn)

IC50 [1]: 561 nM | IC50 (5-LO): 170 nM
Compound: C=CCOc1c(NC(=O)N(C)O)cc([C@H]2SC[C@H](c3cc(OC)c(OC)c(OC)c3)S2)cc1OC (relative stereo) [compound 5, Trans-2-[4-allyloxy-3-methoxy-5-(N-hydroxy-N-methylureidyl)phenyl]-4-(3,4,5-trimethoxyphenyl)-1,3-dithiolane]

IC50 [1]: 543 nM | IC50 (5-LO): 570 nM
Compound: C=CCOc1c(NC(=O)N(O)C(C)(C)C)cc([C@H]2SC[C@H](c3cc(OC)c(OC)c(OC)c3)S2)cc1OC (relative stereo) [compound 6, Trans-2-[4-allyloxy-3-methoxy-5-(N-t-butyl-N-hydroxyureidyl)phenyl]-4-(3,4,5-trimethoxyphenyl)-1,3-dithiolane]

IC50 (5-LO): 92 nM
Compound: COc1cc([C@H]2SC[C@H](c3cc(OC)c(OC)c(OC)c3)S2)cc(NC(=O)N(C)O)c1OCCSc1ccc(C#N)cc1 (relative stereo) [compound 13, Trans-2-[5-(N-hydroxy-N-methylureidyl)-4-{2-(4'-cyano-phenylthio)ethoxy}-3-methoxyphenyl]-4-(3,4,5-trimethoxyphenyl)-1,3-dithiolane]

IC50 [1]: 798 nM | IC50 (5-LO): 320 nM
Compound: COc1cc([C@H]2SC[C@H](c3cc(OC)c(OC)c(OC)c3)S2)cc(NC(=O)N(O)C(C)(C)C)c1OC (relative stereo) [compound 4, Cis and Trans-2-[3,4-dimethoxy-5-(N-t-butyl-N-hydroxyureidyl)phenyl]-4-(3,4,5-trimethoxyphenyl)-1,3-dithiolane]

IC50 (RBL 5-LO): 250 nM
Compound: C=CCOc1c(NC(=O)N(O)C(C)(C)C)cc([C@H]2O[C@@H](c3cc(OC)c(OC)c(OC)c3)CS2)cc1OC (relative stereo)

inhibition at 3 µM (5-LO): 41%
Compound: COc1cc([C@H]2SC[C@H](c3cc(OC)c(OC)c(OC)c3)S2)cc(N)c1OCCSc1ccc(O)cc1 (relative stereo) [compound 8, Trans-2-[5-amino-4-{2-(4'-hydroxyphenylthio)ethoxy}-3-methoxyphenyl]-4-(3,4,5-trimethoxyphenyl)-1,3-dithiolane]

inhibition at 3 µM (5-LO): 25%
Compound: COc1cc([C@H]2CS[C@H](c3cc(OC)c(OCCSc4ccc(O)cc4)c(N(C)C)c3)S2)cc(OC)c1OC (relative stereo) [compound 14, Trans-2-[5-(N,N-dimethylamino)-4-{2-(4'-hydroxyphenylthio)ethoxy}-3-methoxyphenyl]-4-(3,4,5-trimethoxyphenyl)-1,3-dithiolane]
